Measurements taken from patent US20240376085A1 (Janssen Pharmaceutica NV, priority 2021, published 2024).

Key:
[1] = target: T1, IL-17A : IL-17RA binding (Homo sapiens, UniProt Q16552, K93Q); test: IL-17A(FLAG-tagged):IL-17RA(His-tagged) binding disruption Eu-HTRF assay, Protocol 1; settings: FLAG-IL-17A 2.5 nM at 2x final concentration; average if tested more than once
T1 construct: Name: IL-17A-Flag
Outline: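 IC50 came from a one-site competition fit of the acceptor/donor (665/620 nm) HTRF ratio. His-tagged IL-17RA, Eu-anti-FLAG and D2-anti-His were added after a 1 h rt compound preincubation with FLAG-tagged IL-17A dimer in PBS/0.01% Triton X-100, followed by 2 h at rt before reading.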

[2] = tested on: IL-17A-induced G-CSF production in human normal keratinocyte (NHK); test: NHK assay: IL-17A-induced G-CSF production in normal human keratinocytes; type: cell-based; settings: 24 h, IL-17A 5 ng/mL, average if tested more than once
Outline: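 IC50 derives from G-CSF in supernatants, quantified by HTRF from a standard curve, with CellTiter-Glo viability compared to DMSO control. Before a 24 h, 37°C culture of normal human keratinocytes at 3000–4000 cells/well, compound dilutions were preincubated 1 h at rt with human IL-17A (5 ng/mL final), with 0.2% DMSO and 5% FBS.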

T1 sequence (Q16552 with tags, fused parts or gaps K93Q): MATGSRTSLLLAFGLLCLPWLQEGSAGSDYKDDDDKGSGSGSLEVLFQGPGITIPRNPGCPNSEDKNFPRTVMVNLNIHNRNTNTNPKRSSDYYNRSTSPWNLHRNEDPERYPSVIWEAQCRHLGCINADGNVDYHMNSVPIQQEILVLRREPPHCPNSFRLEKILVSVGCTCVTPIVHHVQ

IC50 [1] [µM] | Structure (SMILES) | IC50 ([2]; Homo sapiens, Keratinocyte) [µM] | IC50 [2] [µM]
< 0.05 | Cc1nonc1C(=O)N[C@@H](CC(C)(C)C(F)(F)F)c1nc2ccc([C@H](NC(=O)CC3CC(F)(F)C3)C3CC3)cc2[nH]1 [Example 186, N—((S)-1-(6-((R)-Cyclopropyl(2-(3,3-difluorocyclobutyl)acetamido)methyl)-1H-benzo[d]imidazol-2-yl)-4,4,4-trifluoro-3,3-dimethylbutyl)-4-methyl-1,2,5-oxadiazole-3-carboxamide] | 0.05 to 0.1 | 
> 0.1 | C[C@@H](NC(=O)CCC(F)(F)F)c1ccc2[nH]c([C@@H](NC(=O)c3cnn(CCOC(F)(F)F)c3)C3CCC(F)(F)CC3)nc2c1 [Example 26, N—[(S)-(4,4-Difluorocyclohexyl)-[6-[(1R)-1-(4,4,4-trifluorobutanoylamino)ethyl]-1H-benzimidazol-2-yl]methyl]-1-[2-(trifluoromethoxy)ethyl]pyrazole-4-carboxamide] | > 0.1 | 
> 0.1 | C[C@@H](NC(=O)CCC(F)(F)F)c1ccc2[nH]c([C@@H](NC(=O)c3cc(O)n(CCC(F)(F)F)n3)C3CCC(F)(F)CC3)nc2c1 [Example 93, N—((S)-(4,4-Difluorocyclohexyl)(5-((R)-1-(4,4,4-trifluorobutanamido)ethyl)-1H-benzo[d]imidazol-2-yl)methyl)-5-hydroxy-1-(3,3,3-trifluoropropyl)-1H-pyrazole-3-carboxamide] | > 0.1 | 
> 0.1 | Cc1nonc1C(=O)N[C@H](c1nc2ccc([C@H](NC(=O)CC3CC(F)(F)C3)C3CC3)cc2[nH]1)C1CCCCO1 (single isomer, unassigned) [Example 252, N—((R)-(6-((R)-Cyclopropyl(2-(3,3-difluorocyclobutyl)acetamido)methyl)-1H-benzo[d]imidazol-2-yl)((R*)-tetrahydro-2H-pyran-2-yl)methyl)-4-methyl-1,2,5-oxadiazole-3-carboxamide] | > 0.1 | 
> 0.1 | C[C@@H](NC(=O)CCC(F)(F)F)c1ccc2nc([C@@H](NC(=O)c3cnnn3CCC(F)F)C3CCC(F)(F)CC3)[nH]c2c1 [Example 74, N—((S)-(4,4-Difluorocyclohexyl)(6-((R)-1-(4,4,4-trifluorobutanamido)ethyl)-1H-benzo[d]imidazol-2-yl)methyl)-1-(3,3-difluoropropyl)-1H-1,2,3-triazole-5-carboxamide] | > 0.1 | 
< 0.05 | Cc1nonc1C(=O)N[C@@H](CC(C)(C)C(F)(F)F)c1nc2cc([C@H](NC(=O)CCC(F)(F)F)C3CC3)ccc2[nH]1 (relative stereo) [Example 193, N—((S*)-1-(5-((R*)-Cyclopropyl(4,4,4-trifluorobutanamido)methyl)-1H-benzo[d]imidazol-2-yl)-4,4,4-trifluoro-3,3-dimethylbutyl)-4-methyl-1,2,5-oxadiazole-3-carboxamide] | 0.05 to 0.1 | 
> 0.1 | C[C@@H](NC(=O)CCC(F)(F)F)c1ccc2[nH]c(C(CC(C)(C)C(F)(F)F)NC(=O)c3cnn(CC4CC4)n3)nc2c1 (single isomer, unassigned) [Example 218, 2-(Cyclopropylmethyl)-N—((S*)-4,4,4-trifluoro-3,3-dimethyl-1-(5-((R)-1-(4,4,4-trifluorobutanamido)ethyl)-1H-benzo[d]imidazol-2-yl)butyl)-2H-1,2,3-triazole-4-carboxamide] |  | > 0.1
0.05 to 0.1 | CC(C)c1scnc1C(=O)N[C@H](c1nc2cc([C@@H](C)NC(=O)CCC(F)(F)F)ccc2[nH]1)C1CCC(F)(F)CC1 [Example 200, N—((S)-(4,4-Difluorocyclohexyl)(5-((R)-1-(4,4,4-trifluorobutanamido)ethyl)-1H-benzo[d]imidazol-2-yl)methyl)-5-isopropylthiazole-4-carboxamide] | 0.05 to 0.1 | 
< 0.05 | CC(C)(OC[C@H](NC(=O)c1nonc1C1CC1)c1nc2cc([C@H](NC(=O)CC34CC(F)(C3)C4)C3CC3)ccc2[nH]1)C(F)(F)F [Example 166, 4-Cyclopropyl-N—((R)-1-(5-((R)-cyclopropyl(2-(3-fluorobicyclo[1.1.1]pentan-1-yl)acetamido)methyl)-1H-benzo[d]imidazol-2-yl)-2-((1,1,1-trifluoro-2-methylpropan-2-yl)oxy)ethyl)-1,2,5-oxadiazole-3-carboxamide] | < 0.05 | 
> 0.1 | CC(C)CC(NC(=O)CCC(F)(F)F)c1ccc2[nH]c([C@@H](NC(=O)c3ccnn3C)C3CCC(F)(F)CC3)nc2c1 (single isomer, unassigned) [Example 49, N—((S)-(4,4-Difluorocyclohexyl)(5-((R*)-3-methyl-1-(4,4,4-trifluorobutanamido)butyl)-1H-benzo[d]imidazol-2-yl)methyl)-1-methyl-1H-pyrazole-5-carboxamide] |  | < 0.05
> 0.1 | COCCn1nncc1C(=O)N[C@H](c1nc2cc([C@@H](C)NC(=O)CCC(F)(F)F)ccc2[nH]1)C1CCC(F)(F)CC1 [Example 15, N—[(S)-(4,4-Difluorocyclohexyl)-[6-[(1R)-1-(4,4,4-trifluorobutanoylamino)ethyl]-1H-benzimidazol-2-yl]methyl]-3-(2-methoxyethyl)triazole-4-carboxamide] | > 0.1 | 
> 0.1 | C[C@@H](NC(=O)CCC(F)(F)F)c1ccc2nc([C@@H](NC(=O)c3cnn(CC4CC4)c3)C3CCC(F)(F)CC3)[nH]c2c1 [Example 61, 1-(Cyclopropylmethyl)-N—((S)-(4,4-difluorocyclohexyl)(6-((R)-1-(4,4,4-trifluorobutanamido)ethyl)-1H-benzo[d]imidazol-2-yl)methyl)-1H-pyrazole-4-carboxamide] | > 0.1 | 
> 0.1 | C[C@@H](NC(=O)CCC(F)(F)F)c1ccc2[nH]c([C@@H](NC(=O)CC3CC3(F)F)C3CCC(F)(F)CC3)nc2c1 (single isomer, unassigned) [Example 107, N—((R)-1-(2-((S)-(4,4-Difluorocyclohexyl)(2-((R*)-2,2-difluorocyclopropyl)acetamido)methyl)-1H-benzo[d]imidazol-5-yl)ethyl)-4,4,4-trifluorobutanamide] | > 0.1 | 
0.05 to 0.1 | C[C@@H](NC(=O)CCC(F)(F)F)c1ccc2[nH]c([C@@H](NC(=O)c3ncnn3CC3CC3)C3CCC(F)(F)CC3)nc2c1 [Example 30, 2-(Cyclopropylmethyl)-N—[(S)-(4,4-difluorocyclohexyl)-[6-[(1R)-1-(4,4,4-trifluorobutanoylamino)ethyl]-1H-benzimidazol-2-yl]methyl]-1,2,4-triazole-3-carboxamide] | > 0.1 | 
> 0.1 | C[C@@H](NC(=O)CCC(F)(F)F)c1ccc2[nH]c([C@@H](NC(=O)c3cnn4c3CCC4)C3CCC(F)(F)CC3)nc2c1 [Example 212, N—((S)-(4,4-Difluorocyclohexyl)(5-((R)-1-(4,4,4-trifluorobutanamido)ethyl)-1H-benzo[d]imidazol-2-yl)methyl)-5,6-dihydro-4H-pyrrolo[1,2-b]pyrazole-3-carboxamide] | > 0.1 | 
> 0.1 | C[C@@H](NC(=O)CCC(F)(F)F)c1ccc2nc([C@@H](NC(=O)c3cnn(CCC(F)F)n3)C3CCC(F)(F)CC3)[nH]c2c1 [Example 73, N—((S)-(4,4-Difluorocyclohexyl)(6-((R)-1-(4,4,4-trifluorobutanamido)ethyl)-1H-benzo[d]imidazol-2-yl)methyl)-2-(3,3-difluoropropyl)-2H-1,2,3-triazole-4-carboxamide] | > 0.1 | 
